From a melting point compilation (Tetko et al.; mined from patent text by program, amines drawn as free bases though some values may be those of a salt) come the findings set out here.

Broadly, the melting point is the temperature, or range, at which the solid turns liquid.

Structures are written as SMILES. Where only a bound is given, the exact number is not on record here.

As to `CCCOCCN(CC)c1ccc(-c2ccc3c(c2)C=C(C(=O)Nc2ccc(CN(C)C4CCOCC4)cc2)CCS3(=O)=O)cc1`, the melting point lay in the range of 172 to 175 °C.

As to `CS(=O)(=O)Nc1ccc(F)c(C(O)CN)c1` (stereo not drawn), the melting point lay within 176 to 179 °C.

In turn, `CCCc1cc(-c2[nH]c3ccccc3c2C)cc(CCC)c1O` displayed a melting point of 102 °C.

In turn, `COP(=O)(OC)C(O)=Cc1ccc(Cl)cc1` returned a melting point of 89 to 92 °C.

In turn, `CCOC(=O)C1CN(C)c2nc3cc(F)c(F)cc3cc2C1=O` (stereo not drawn) showed a melting point of 188 °C.

Regarding `CN(C)c1ccc(Cn2nnc(-c3ccc(OC(=O)C(C)(C)C)c(N(C)C)c3)n2)cc1`, the melting point lay within 73 to 74 °C.

`CNC1=NS(=O)(=O)N=C(Oc2ccccc2[N+](=O)[O-])N1C(C)C` displayed a melting point of 242 °C.

As to `O[C@@H](COc1cccc(-c2noc3ccsc23)c1)CN1CCN(c2ccccc2F)CC1`, the melting point was 96 to 99 °C.

`CCS(=O)(=O)c1ccc(-c2cc(C(F)(F)F)ccc2OCC(=O)O)cc1C(F)(F)F` showed a melting point of 174 to 175 °C.

For the molecule `C=CCNc1c(C#N)cnc2cn[nH]c12`, the melting point was 249 to 252 °C.

Consider `CCOC(=O)Cn1cc(CC(=O)O)c2ccccc21`, for which the melting point was found to be 138 °C.

`CC(C)(C)OC(=O)N1CCN(CCc2ccc(F)cc2)CC1`: the melting point lay within 68 to 70 °C.

In turn, `CN1CCCCC1=C1C(=O)N(c2cccc(Cl)c2)c2ccccc21` came in with a melting point of 162 to 165 °C.

In turn, `Fc1ccc(-c2csc(Nc3ccccc3C(F)(F)F)n2)cc1` had a melting point of 184 °C.

`CCOc1cc(OC)cc(O)c1C(=O)C=Cc1ccc(OC)cc1` gave a melting point of 124 °C.

In turn, `C=CCc1cc2c(c(O)c1C)C(=O)c1c(OC)c3c(c(O)c1C2=O)-c1c(cc2cnn(-c4ccccc4)c(=O)c2c1O)CC3` returned a melting point of 163 °C.

`CC1(C)CC(N2C(=O)C=CC2=O)CC(C)(C)N1` had a melting point of 104 to 111 °C.

Regarding `COc1ccc(CCN2CCC(C(O)(c3ccccc3)c3nc4ccccc4s3)CC2)cc1` (stereo not drawn), the melting point is 67 to 70 °C.

Regarding `O=C(O)c1ccc2nc3ccc(C(=O)O)nn3c(=O)c2c1`, the melting point is > 285 °C.

In turn, `NC(=O)c1ccc(-c2cnc3[nH]c(=O)n(CC4CCOCC4)c3n2)cc1` had a melting point of 273 to 275 °C.

As for `CC(C)=CCON1C(=O)c2ccccc2C1=O`, the melting point lay in the range of 97 to 98 °C.

As for `COc1ccc(-n2nc(Cl)cc2-c2ccc(OCCNC(N)=O)cc2)cc1`, the melting point is 140 to 142 °C.

Turning to `CC[C@H]1COC(=O)N1c1nc(-c2ccc(Br)cc2)c(F)s1`, the melting point was in the range of 105 to 107 °C.

As for `O=C(O)c1cc(C#Cc2ccc(C(=O)O)c(C(=O)O)c2)cc(C(=O)O)n1`, the melting point was > 300 °C.

On to `CC(=O)Nc1nc2c(s1)-c1nc(N3CCOCC3)ncc1C2`, for which the melting point was > 300 °C.

For `O=C1c2ccc(OC3CC3)cc2CCC1CN1CCC(O)(c2ccccc2)CC1` (stereo not drawn), the melting point fell in the range of 187 to 189 °C.

Turning to `O=C1N(C(c2ccccc2)c2ccccc2)c2c(F)cccc2C12COc1cc3c(cc12)CCO3` (stereo not drawn), the melting point lay in the range of 183 to 184 °C.

The molecule `CCN(C)c1cccc(NC(=O)COC(C)=O)c1C#N` had a melting point of 57 to 58 °C.

The molecule `Cn1c(=O)c2c(ncn2CC(O)CN2CCN(CCCS(=O)(=O)c3ccccc3)CC2)n(C)c1=O` (stereo not drawn) displayed a melting point of 168 °C.

For `COC(=O)C(Oc1ccc(F)cc1)c1ccc(Sc2ccc(Cl)cc2)cc1` (stereo not drawn), the melting point lay within 84.5 to 87 °C.

In turn, `O=C1CCC(C(=O)O)(c2ccccc2)CC1` came in with a melting point of 136 to 140 °C.

Turning to `CC(C)N=CCCC1(C(N)=O)c2ccccc2-c2ccccc21`, the melting point was 149 to 155 °C.

The molecule `COc1c(Nc2ncc3ccc(-c4ccccc4N(C)S(C)(=O)=O)n3n2)ccc(N2CCN(C[C@H](C)O)CC2)c1F` showed a melting point of 86 to 88 °C.

For `O=C(CCn1cnc2c(=O)[nH]cnc21)NCCc1c[nH]c2ccccc12`, the melting point was in the range of 204 to 206 °C.

`CCOC(=O)C(C)(C#N)c1ccc2c(c1)Cc1cccnc1O2` (stereo not drawn): the melting point lay in the range of 119 to 120 °C.

As to `NS(=O)(=O)c1cc(C(=O)O)cc([N+](=O)[O-])c1Oc1ccccc1`, the melting point lay within 255 to 256 °C.

In turn, `CCc1cc(-c2ccc(OC)cc2)ccc1[N+](=O)[O-]` yielded a melting point of 94 to 95 °C.

Turning to `CCN1C(=O)c2cccc(C)c2Oc2ncccc21`, the melting point was in the range of 74 to 76 °C.

`CCOC(=O)Cc1cccc2c(-c3ccc(N(C)C)cc3)nccc12`: the melting point lay in the range of 132 to 135 °C.

On to `CCOC(=O)c1cn(Cc2ccccc2)nc1OCc1ccc(OCc2nc(-c3ccco3)oc2C)c(O)c1`, for which the melting point lay within 134 to 135 °C.

`COc1ccc(Cn2c(=O)c3cccnc3n(CCCCl)c2=O)cc1` came in with a melting point of 114 to 115 °C.

`C#CCOc1ccc(-c2ccccc2NC(=O)C(NS(=O)(=O)CC)C(C)C)cc1OC` (stereo not drawn): the melting point was in the range of 97 to 103 °C.

As to `CC(C)(C)c1cc(CN(c2cccnc2)S(=O)(=O)c2cccc(Br)c2)cc(C(C)(C)C)c1O`, the melting point lay in the range of 129 to 131 °C.

`CC=C(C)C1CCC2C3CCC4=CC(=O)CCC4(C)C3CCC12C` (stereo not drawn): the melting point was 157 to 165 °C.

Molecule `COc1cc(NS(=O)(=O)c2ccc(Cl)cc2)c(C(=O)Cl)cc1OC` gave a melting point of 175 to 177 °C.

On to `O=C1Nc2cc(C(F)(F)F)ccc2N2CCN(CCc3ccccn3)CC12` (stereo not drawn), for which the melting point lay within 194 to 196 °C.

For the molecule `COc1ccc(C2COc3c(ccc(O)c3C)C2)cc1OC` (stereo not drawn), the melting point lay in the range of 125 to 127 °C.

In the case of `CCOC(=O)c1cnn(-c2ccc(OCC3CC3)c(C#N)c2)c1`, the melting point lay within 147 to 149 °C.

As to `N#Cc1ccc(C(=O)NCCCCn2cnc3c(N)nc4ccccc4c32)cn1`, the melting point fell in the range of 125 to 129 °C.

`O[C@@H]1[C@H](O)CS[C@H]1n1cnc2c(NCc3cccc(I)c3)ncnc21` gave a melting point of 199 to 200 °C.

Take `O=C1CCC(c2ccc(NC(=O)C3(Cl)CC3)cc2)=NN1`: the melting point is 231 to 232 °C.

For `CC(C)Cn1cnc2c(N)nc3ccc(-c4ccccc4)cc3c21`, the melting point was 203 to 204 °C.

`CC(=O)C(=Cc1cccnc1)C(C)=O`: the melting point is 52 to 57 °C.

With `N#Cc1cnn2c(-c3cccc(Cl)c3)ccnc12`, the melting point lay in the range of 238 to 240 °C.

On to `Cn1c(C(=O)N[C@H]2CCCC[C@H]2C(=O)N[C@@H](CCC(N)=O)C(N)=O)cc2ccccc21`, for which the melting point fell in the range of 234 to 235 °C.

For `CNCc1ccc([C@H]2CC[C@H](OC(=O)Cc3ccc(Cl)cc3)CC2)cc1`, the melting point fell in the range of 65 to 67 °C.

`CCO/C(=N/OC(C)=O)C1Cc2cc(C(=O)CC)c(O)c(Cl)c2O1` (stereo not drawn) showed a melting point of 140 to 142 °C.

As to `COc1ccc(-n2nc(CC(C(=O)N(C)O)c3ccc(Cl)cc3)cc2-c2ccc(Cl)cc2)cc1` (stereo not drawn), the melting point was 113 to 117 °C.

`CCOc1cc(COc2nn(Cc3ccccc3)cc2CO)ccc1OCc1nc(-c2ccco2)oc1C` showed a melting point of 137 to 138 °C.

Turning to `Cn1nnnc1CC(O)(c1ccccc1)c1ccc(F)cc1` (stereo not drawn), the melting point fell in the range of 113 to 114 °C.

`O=C(CCCl)c1ccc2c(c1)CCC2`: the melting point lay within 63.5 to 65.1 °C.

In turn, `COc1cc(OC)nc(NC(=O)NS(=O)(=O)c2sc(Cl)c3c2C(=O)OCC3)n1` registered a melting point of 110 to 114 °C.

In turn, `ClCc1cccc(/C=C/c2cc(-c3ccsc3)cs2)c1` came in with a melting point of 137 to 138 °C.

In the case of `CSc1sc(C(N)=O)c2c1-c1sc(-c3ccccc3)cc1CC2`, the melting point was in the range of 192 to 193 °C.

In turn, `Cc1oc(=O)c(Nc2ccc([N+](=O)[O-])cc2)nc1Cl` came in with a melting point of 230 to 234 °C.

`O=C(O)CCCc1cc2cc(Cl)ccc2n1S(=O)(=O)c1ccc2ccccc2c1` gave a melting point of 166 °C.

Turning to `CC(=O)Nc1cc(C)c2c(c1O)C(=O)CC2`, the melting point is 193 to 198 °C.

Molecule `CCc1nnc2c(NC3CCCC3)nc3ccccc3n12` returned a melting point of 166 to 168 °C.

On to `Oc1ccc(C2(c3ccc(O)cc3)c3ccccc3C(c3ccc(O)cc3)(c3ccc(O)cc3)c3ccccc32)cc1`, for which the melting point lay within 208 to 209 °C.

With `COc1cc2c(=O)n(CC3CCCO3)c3c4cc5c(cc4ncc3c2cc1OC)OCO5` (stereo not drawn), the melting point lay within 270 to 273 °C.

`Cn1c(-c2ccccn2)cc2onc(-c3ccccc3)c2c1=O` registered a melting point of 160 to 162 °C.

Turning to `CCC(CC)(CC(=O)Nc1cccc(OCc2ccc3ccc(F)cc3n2)c1)C(=O)OC`, the melting point was 92 to 93 °C.

For the molecule `O=C(Nc1ccc2ccc(Cl)nc2n1)c1ccc2c(c1)OCO2`, the melting point worked out at 256 °C.

The molecule `O=C1c2ccc(Nc3ccc(Cl)cc3)cc2C(=O)N1Cc1cccnc1` returned a melting point of 207 to 210 °C.

On to `COCOc1ccc(OCc2ccc(OCc3nc(-c4ccccc4)oc3C)cc2)c(CC#N)c1`, for which the melting point is 123 to 124 °C.

In the case of `CCCCC(CC)COC(=O)CC(C(=O)OCC(CC)CCCC)S(=O)(=O)O` (stereo not drawn), the melting point turned out to be 70 °C.

In turn, `CS(=O)(=O)N1CCC(Nc2nc(Nc3cccc(C(F)(F)F)c3)nc(OCc3ccccn3)n2)CC1` returned a melting point of 160 to 162 °C.

As to `CS(=O)(=S)OCCCCC(=O)O` (stereo not drawn), the melting point is 61 to 62.5 °C.

`O=C(CC1=CC(O)CC1=O)Oc1ccc2ccccc2c1` (stereo not drawn): the melting point came to 81 °C.

`CC12CCC3C(CCC4CCCCC43C)C1CC(F)C2=O` (stereo not drawn) yielded a melting point of 148 to 150 °C.

Consider `COc1cc2c(Nc3cc(OC)c(OC)c(OC)c3)c(C#N)cnc2cc1F`, for which the melting point was in the range of 215 to 217 °C.

`CC(C)(C)[C@@H](CO)NC(=O)[C@@H](CC(=O)OCc1ccccc1)n1ccc(-c2ccc(-c3ccc(C(N)=O)cc3)cc2)c1` returned a melting point of 201 to 203 °C.

In turn, `OCc1cccc2c1CCc1ccccc1-2` had a melting point of 108 to 110 °C.

Molecule `CCc1cnc(N2CCN(c3nc(-c4ccccc4)nc4ccccc34)CC2)nc1` had a melting point of 137 to 138 °C.

For the molecule `COc1ccc2nnc3ccc(OC)cc3c2c1`, the melting point lay in the range of 170 to 172 °C.

Molecule `COCn1c(C(N)=O)c(OC(C)C)c2cc(OC)ccc21` had a melting point of 145 to 147 °C.

Regarding `CC1CCN(c2c(-c3c(F)cc(F)cc3F)c(Cl)nc3nc(S(C)(=O)=O)nn23)CC1`, the melting point was determined as 206 °C.

As for `CC(C)C1NC(=O)CN1C(=O)CN` (stereo not drawn), the melting point lay within 141 to 143 °C.
